“Also recorded” adds a separate entry of the source.
Legend:
[1] = molecular target: PD1 (SEQ ID NO:1) conjugated to a His tag (Homo sapiens, UniProt Q15116); experiment: ELISA of anti-PD1 antibody titre in immunised rabbits on PD1 coated plates; assay type: binding; conditions: for anti-PD1 antibody response / titre raised in immunised rabbits (in words): rabbits immunised with KLH-conjugated peptide in Freund's adjuvant
Procedure: Approximately 250-500 μg of each KLH-conjugated peptide fragment was diluted with saline and subsequently emulsified in complete or incomplete Freund's adjuvant at a mass ratio of 1:1. The emulsified solution was administered to rabbits by subcutaneous injection around the shoulders and intramuscular injection into the legs in accordance with the following immunization protocol: • i. Day 00—Serum collected 2 ml (for 0.5-1.0 ml pre-immune serum; • ii. Day 01—1st-immunization, complete Freund's adjuvant, 500 μg peptide fragment; • iii. Day 15—2nd-immunization, complete Freund's adjuvant, 500 μg peptide fragment; • iv. Day 29—3rd-immunization, incomplete Freund's adjuvant, 250 μg peptide fragment; • v. Day 35—Serum collected, 2-3 ml for assessment of anti-PD1 antibody titre by ELISA; • vi. Day 36—4th-immunization, incomplete Freund's adjuvant, 250 μg peptide fragment (optional); • vii. Day 43—5th-immunization, incomplete Freund's adjuvant. 250 μg peptide fragment (optional); • viii. Day 50—6th-immunization, incomplete Freund's adjuvant 250 μg peptide fragment (optional); • ix. Day 57—7th-immunization, incomplete Freund's adjuvant 250 μg peptide fragment (optional); • x. Day 63—Blood sample is collected from the immunised rabbits. B. Assessment of Anti-PDJ Antibody Titre in Immunised Rabbits by ELISA
An enzyme-linked immunosorbent assays (ELISA) was used to measure the anti-PD1 antibody titre in the blood samples collected from the immunized rabbits. Briefly, microtiter plates were coated with PD1 (SEQ ID NO:1) conjugated to a His tag. After blocking the wells of the microtiter plates with BSA to minimise non-specific binding, diluted sera from the immunized rabbits were added to the plates and incubated on a shaker for around 1 hr at 20° C. (or alternatively overnight at 4° C.). The plates were then washed four times with PBS/0.1% v/v Tween 20 and excess wash buffer was removed from each well.
Approximately 100 μL of a horseradish peroxidase-labeled anti-rabbit antibody was then added to each well and incubated for around 1 hr at 20° C. The plates were then washed four times with PBS/0.1% v/v Tween 20 and excess wash buffer was removed from each well. The plates were then washed twice with PBS only, to remove traces of Tween remaining from the washing buffer.
To detect the presence of horseradish peroxidase-labeled, anti-rabbit antibody, 100 μL of 1-Step™ ABTS (Pierce Cat. No. 37615) was added to each well and incubated for up to 45 min at 20° C. The absorbance of any colour change in each well was read using a microtitre Titertek Multiskan MC plate reader in the dual wavelength mode at 405 nm against a reference wavelength of 492 nm and compared to appropriate negative controls, such as the colour change observed in a well to which no PD1 was added, to which no immunised rabbit sera was added and/or to which no horseradish peroxidase-labeled, anti-rabbit antibody was added.
Approximately 250-500 μg of each KLH-conjugated fusion peptides were diluted with saline and subsequently emulsified in complete or incomplete Freund's adjuvant at a mass ratio of 1:1. The emulsified solutions were administered to rabbits by subcutaneous injection around the shoulders and intramuscular injection into the legs in accordance with the immunization protocol of Example 2, above.
An enzyme-linked immunosorbent assays (ELISA) was used to measure the anti-PD1 antibody titre in the blood samples collected from the immunized rabbits, in accordance with the methodology set out in Example 2 above. The absorbance readings from the ELISA assay are shown in Table 8, below (SEQ TD NO:9 is underlined): […]

[2] = test system: PD1 protein from other species—mouse, rat, Rhesus monkey, Cynomolgus monkey and canine; experiment: Cross-reactivity ELISAs, summary over species; assay type: binding; conditions: for cross-reactivity of affinity-purified anti-PD1 antibodies from animals immunised with the peptide with PD1 protein from other species: mouse, rat, Rhesus monkey, Cynomolgus monkey and canine
Procedure: To assess whether or not the anti-human PD1 antibodies raised in the immunised rabbits would cross-react with PD1 of other species, the anti-PD1 antisera from the Examples 7 and 8, above, were screened in an ELISA assay for binding to mouse, rhesus monkey, canine and rat PD1 proteins.
A further ELISA assay was performed to make a direct comparison of the cross-reactivity of anti-human PD1 antibodies raised in the immunised rabbits (Rabbits 1 and 2) to PD1 proteins of different species.

PD1 (SEQ ID NO:1) conjugated to a His tag, sequence (Q15116 25-170): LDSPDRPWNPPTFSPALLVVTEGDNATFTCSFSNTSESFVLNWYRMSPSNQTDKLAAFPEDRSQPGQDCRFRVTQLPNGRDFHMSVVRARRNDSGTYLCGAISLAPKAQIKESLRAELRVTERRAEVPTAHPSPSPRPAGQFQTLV

Row | Sequence | anti-PD1 antibody response / titre raised in immunised rabbits (in words) [1] | species of greatest cross-reactivity of the anti-PD1 antibodies raised with the peptide [2] | cross-reactivity of affinity-purified anti-PD1 antibodies from animals immunised with the peptide with PD1 protein from other species [2] | anti-PD1 antibody titre compared to the other peptide sequences ([1]; immunised rabbits)
1 | LAAFPEDRSQPG (listed as Homo sapiens) [SEQ ID NO:28] | raising an anti-PD1 antibody response; also recorded: sufficient anti-PD1 antibody titres | greatest cross-reactivity to PD1 protein from Rhesus and Cynomolgus monkeys | at least some cross-reactivity | –
2 | GAISLAPKAQIKGWFLDSPDRPWN (listed as Homo sapiens) [SEQ ID NO:57] | Anti-PD1 antibodies were also raised | greatest cross-reactivity to PD1 protein from Rhesus and Cynomolgus monkeys | at least some cross-reactivity | –
3 | GWFLDSPDRPWNGAISLAPKAQIK (listed as Homo sapiens) [SEQ ID NO:56] | Anti-PD1 antibodies were also raised | greatest cross-reactivity to PD1 protein from Rhesus and Cynomolgus monkeys | at least some cross-reactivity | –
4 | GAISLAPKAQIK (listed as Homo sapiens) [SEQ ID NO:43] | raising an anti-PD1 antibody response; also recorded: sufficient anti-PD1 antibody titres | greatest cross-reactivity to PD1 protein from Rhesus and Cynomolgus monkeys | at least some cross-reactivity | –
5 | FPEDRSQPGQDC (listed as Homo sapiens) [SEQ ID NO:29] | raising an anti-PD1 antibody response; also recorded: sufficient anti-PD1 antibody titres | greatest cross-reactivity to PD1 protein from Rhesus and Cynomolgus monkeys | at least some cross-reactivity | –
6 | FSPALLVVTEGD (listed as Homo sapiens) [SEQ ID NO:14] | raising an anti-PD1 antibody response; also recorded: sufficient anti-PD1 antibody titres | greatest cross-reactivity to PD1 protein from Rhesus and Cynomolgus monkeys | at least some cross-reactivity | –
7 | GWFLDSPDRPWN (listed as Homo sapiens) [SEQ ID NO:9] | raising an anti-PD1 antibody response; also recorded: sufficient anti-PD1 antibody titres | greatest cross-reactivity to PD1 protein from Rhesus and Cynomolgus monkeys | at least some cross-reactivity | highest anti-PD1 antibody titre; also recorded: higher anti-PD1 antibody titre
8 | LDSPDRPWNPPT (listed as Homo sapiens) [SEQ ID NO:10] | raising an anti-PD1 antibody response; also recorded: sufficient anti-PD1 antibody titres | greatest cross-reactivity to PD1 protein from Rhesus and Cynomolgus monkeys | at least some cross-reactivity | –
9 | NWYRMSPSNQTD (listed as Homo sapiens) [SEQ ID NO:59] | raising an anti-PD1 antibody response; also recorded: sufficient anti-PD1 antibody titres | greatest cross-reactivity to PD1 protein from Rhesus and Cynomolgus monkeys | at least some cross-reactivity | –
10 | YLSGAISLAPKA (listed as Homo sapiens) [SEQ ID NO:61] | raising an anti-PD1 antibody response; also recorded: sufficient anti-PD1 antibody titres | greatest cross-reactivity to PD1 protein from Rhesus and Cynomolgus monkeys | at least some cross-reactivity | –
11 | LRVTERRAEVPT (listed as Homo sapiens) [SEQ ID NO:49] | raising an anti-PD1 antibody response; also recorded: sufficient anti-PD1 antibody titres | greatest cross-reactivity to PD1 protein from Rhesus and Cynomolgus monkeys | at least some cross-reactivity | –

Reference: patent publication US12311019B2, “Vaccine composition and uses thereof” (Imugene Limited, priority 2018, dated 2025)
